Reference: ChEMBL document CHEMBL1201862, “PubChem BioAssay data set” (2004)
Calls of active or inactive are those of the source.

Experiments:
[1] = target: DNA dC->dU-editing enzyme APOBEC-3G (Homo sapiens, UniProt Q9HC16); type: functional;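 note: Dose-response counterscreen measuring inhibition of APOBEC3G DNA deaminase activity, run while confirming APOBEC3A inhibitors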
[2] = target: DNA dC->dU-editing enzyme APOBEC-3A (Homo sapiens, UniProt P31941); assay: Dose Response confirmation of small molecule APOBEC3A DNA Deaminase Inhibitors via a fluorescence-based single-stranded DNA deaminase assay. [Related pubchem assays (depositor defined):AID493011, AID493024]; type: functional
Sequence of DNA dC->dU-editing enzyme APOBEC-3A (P31941 whole entry): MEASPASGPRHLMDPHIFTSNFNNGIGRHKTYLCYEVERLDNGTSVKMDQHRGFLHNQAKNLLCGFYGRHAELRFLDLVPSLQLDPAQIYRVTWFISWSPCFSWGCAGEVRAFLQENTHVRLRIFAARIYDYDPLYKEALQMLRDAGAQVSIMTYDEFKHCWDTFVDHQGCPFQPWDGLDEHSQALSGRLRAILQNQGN

[3] = cytotoxicity toward NIH3T3 fibroblasts, dose response, counter-screen, cell-based, ATP luminescence, mouse fibroblasts (AID 2010); type: functional;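 note: cells exposed to compound for about 90 hours before reading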
[4] = inhibitors of intracellular T. cruzi replication, confirmation, NIH3T3 host cells, beta-gal luminescence (AID 2044); type: functional, cell-based;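 note: intracellular parasites grown in NIH/3T3 mouse fibroblasts as host cells; luminescent beta-galactosidase reporter signal from transgenic T. cruzi replicating inside host cells; inhibitors lower the luminescence signal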
Coagulation factor XII = target: T1, Coagulation factor XII (Homo sapiens, UniProt P00748); type: functional;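 note: activated factor XIIa alpha cleaving a fluorogenic AMC peptide substrate; inhibitor potency from loss of enzyme activity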
T1 sequence (P00748 whole entry): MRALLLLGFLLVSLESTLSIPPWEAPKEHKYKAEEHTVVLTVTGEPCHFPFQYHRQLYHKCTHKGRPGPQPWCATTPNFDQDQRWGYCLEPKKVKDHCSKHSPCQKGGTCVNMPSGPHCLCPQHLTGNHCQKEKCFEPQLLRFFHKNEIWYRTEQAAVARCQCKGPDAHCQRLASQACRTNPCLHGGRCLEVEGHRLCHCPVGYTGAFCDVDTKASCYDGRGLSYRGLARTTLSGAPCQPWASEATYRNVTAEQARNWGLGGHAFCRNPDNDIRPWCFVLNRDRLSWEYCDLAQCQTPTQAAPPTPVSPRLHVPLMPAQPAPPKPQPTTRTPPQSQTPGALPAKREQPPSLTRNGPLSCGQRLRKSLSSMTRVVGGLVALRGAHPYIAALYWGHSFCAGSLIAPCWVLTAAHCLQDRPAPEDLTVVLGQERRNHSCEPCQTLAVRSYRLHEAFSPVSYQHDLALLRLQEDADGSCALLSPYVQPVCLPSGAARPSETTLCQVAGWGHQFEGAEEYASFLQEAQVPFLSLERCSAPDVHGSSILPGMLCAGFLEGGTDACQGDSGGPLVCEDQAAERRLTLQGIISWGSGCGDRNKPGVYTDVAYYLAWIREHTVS

[5] = target: T2, Zinc finger protein mex-5 (Caenorhabditis elegans, UniProt Q9XUB2); assay: MEX-5/TCR-2 RNA interaction inhibitors, dose response, biochemical, C. elegans, fluorescence polarization (AID 1960)
T2 sequence (Q9XUB2 whole entry): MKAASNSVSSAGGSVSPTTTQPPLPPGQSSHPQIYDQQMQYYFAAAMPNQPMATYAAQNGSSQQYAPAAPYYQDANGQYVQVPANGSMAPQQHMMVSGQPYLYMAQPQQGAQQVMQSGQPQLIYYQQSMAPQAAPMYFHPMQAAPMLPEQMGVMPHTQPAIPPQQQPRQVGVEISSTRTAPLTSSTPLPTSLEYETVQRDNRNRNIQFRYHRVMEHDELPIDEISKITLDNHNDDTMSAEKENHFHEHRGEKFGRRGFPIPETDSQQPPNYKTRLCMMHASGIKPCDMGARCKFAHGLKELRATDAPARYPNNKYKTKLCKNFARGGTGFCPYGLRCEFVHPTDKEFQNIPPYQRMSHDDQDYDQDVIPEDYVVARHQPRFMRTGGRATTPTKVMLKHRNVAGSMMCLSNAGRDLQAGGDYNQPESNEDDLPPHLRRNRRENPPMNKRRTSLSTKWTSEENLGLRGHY

[6] = target: T3, RNA-binding protein pos-1 (Caenorhabditis elegans, UniProt G5EF15); assay: inhibitors of POS-1/mex-3 RNA binding, dose response, biochemical, fluorescence polarization (AID 1964);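 note: purified POS-1 fused to maltose binding protein made in E. coli; potency of compounds blocking POS-1 binding to fluorescent RNA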
T3 sequence (G5EF15 whole entry): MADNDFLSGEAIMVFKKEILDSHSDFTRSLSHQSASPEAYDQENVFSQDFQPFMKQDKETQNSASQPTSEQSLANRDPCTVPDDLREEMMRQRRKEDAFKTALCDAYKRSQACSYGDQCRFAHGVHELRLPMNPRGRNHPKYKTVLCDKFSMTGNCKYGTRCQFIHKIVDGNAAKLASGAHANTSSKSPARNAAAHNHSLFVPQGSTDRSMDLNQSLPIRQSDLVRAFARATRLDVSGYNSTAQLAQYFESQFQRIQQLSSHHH

[7] = HepG2 cell cytotoxicity, dose response, cytotoxicity control for Shn3 inhibitor project, CellTiter-Glo, cherry-picked (AID 624134); type: functional, cell-based
INS1 = assay: beta cell apoptosis inhibitors, cytokine rescue, dose response, luminescence, retest (AID 449756); type: functional, cell-based; details: Rattus norvegicus;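 note: cell death triggered by IL-1 beta plus TNF-alpha plus IFN-gamma mixture; protective hits raise ATP signal compared with cytokine alone wells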
[8] = Shn3 3'UTR reporter inhibitors, dose response, cell-based, Clone20 osteoblasts, firefly luciferase, cherry-picked (AID 624132); type: functional;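 note: firefly luciferase luminescence from reporter carrying the Shn3 3'UTR in osteoblasts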
[9] = control 3'UTR Renilla luciferase suppression, dose response, counter-screen for Shn3 inhibitor project, cell-based, Clone20-Shn3RL, cherry-picked (AID 624133); type: functional
[10] = target: T4, Histone-lysine N-methyltransferase NSD2 (Homo sapiens, UniProt O96028); type: biochemical
T4 sequence (O96028 whole entry): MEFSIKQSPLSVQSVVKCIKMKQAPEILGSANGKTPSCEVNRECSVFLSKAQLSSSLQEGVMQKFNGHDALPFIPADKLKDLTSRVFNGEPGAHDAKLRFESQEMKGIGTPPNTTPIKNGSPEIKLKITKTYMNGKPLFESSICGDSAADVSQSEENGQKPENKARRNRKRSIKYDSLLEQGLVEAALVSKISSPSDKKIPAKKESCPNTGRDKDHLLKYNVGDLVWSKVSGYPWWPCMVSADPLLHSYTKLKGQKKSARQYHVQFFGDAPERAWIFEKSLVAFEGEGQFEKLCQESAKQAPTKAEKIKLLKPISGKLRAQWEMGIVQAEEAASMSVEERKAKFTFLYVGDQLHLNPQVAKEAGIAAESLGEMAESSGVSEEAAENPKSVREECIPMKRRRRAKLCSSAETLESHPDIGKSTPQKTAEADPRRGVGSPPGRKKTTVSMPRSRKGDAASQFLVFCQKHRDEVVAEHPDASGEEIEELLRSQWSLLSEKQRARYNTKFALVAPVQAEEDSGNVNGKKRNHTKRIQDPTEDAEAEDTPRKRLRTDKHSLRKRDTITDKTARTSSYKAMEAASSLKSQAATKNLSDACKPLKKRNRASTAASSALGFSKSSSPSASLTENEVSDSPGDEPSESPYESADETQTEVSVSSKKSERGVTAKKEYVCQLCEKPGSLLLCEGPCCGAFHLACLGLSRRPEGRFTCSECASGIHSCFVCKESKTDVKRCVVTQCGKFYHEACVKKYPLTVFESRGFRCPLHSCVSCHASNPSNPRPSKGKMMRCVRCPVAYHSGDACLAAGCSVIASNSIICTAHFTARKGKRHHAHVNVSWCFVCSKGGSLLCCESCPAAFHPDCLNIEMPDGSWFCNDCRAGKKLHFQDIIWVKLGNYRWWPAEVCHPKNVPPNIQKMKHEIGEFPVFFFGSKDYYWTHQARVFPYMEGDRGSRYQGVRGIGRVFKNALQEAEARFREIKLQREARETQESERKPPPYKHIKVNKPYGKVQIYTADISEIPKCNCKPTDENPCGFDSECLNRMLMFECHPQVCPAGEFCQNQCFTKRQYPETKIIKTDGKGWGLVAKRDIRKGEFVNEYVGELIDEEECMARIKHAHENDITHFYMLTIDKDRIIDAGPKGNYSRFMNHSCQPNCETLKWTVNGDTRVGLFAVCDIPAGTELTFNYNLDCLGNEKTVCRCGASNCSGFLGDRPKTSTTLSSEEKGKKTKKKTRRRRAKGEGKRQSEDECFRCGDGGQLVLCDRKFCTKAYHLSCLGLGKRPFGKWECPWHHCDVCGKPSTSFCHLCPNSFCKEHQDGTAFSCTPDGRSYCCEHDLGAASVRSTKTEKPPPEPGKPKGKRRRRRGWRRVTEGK

Aminopeptidase N = target: T5, Aminopeptidase N (Plasmodium falciparum FcB1/Columbia, UniProt O96935); assay: P. falciparum M1AAP inhibitors, biochemical, fluorogenic H-Leu-NHMec substrate, 1536-well (AID 1445); parameters: species or system Plasmodium falciparum 3D7, 3D7
T5 sequence (O96935 whole entry): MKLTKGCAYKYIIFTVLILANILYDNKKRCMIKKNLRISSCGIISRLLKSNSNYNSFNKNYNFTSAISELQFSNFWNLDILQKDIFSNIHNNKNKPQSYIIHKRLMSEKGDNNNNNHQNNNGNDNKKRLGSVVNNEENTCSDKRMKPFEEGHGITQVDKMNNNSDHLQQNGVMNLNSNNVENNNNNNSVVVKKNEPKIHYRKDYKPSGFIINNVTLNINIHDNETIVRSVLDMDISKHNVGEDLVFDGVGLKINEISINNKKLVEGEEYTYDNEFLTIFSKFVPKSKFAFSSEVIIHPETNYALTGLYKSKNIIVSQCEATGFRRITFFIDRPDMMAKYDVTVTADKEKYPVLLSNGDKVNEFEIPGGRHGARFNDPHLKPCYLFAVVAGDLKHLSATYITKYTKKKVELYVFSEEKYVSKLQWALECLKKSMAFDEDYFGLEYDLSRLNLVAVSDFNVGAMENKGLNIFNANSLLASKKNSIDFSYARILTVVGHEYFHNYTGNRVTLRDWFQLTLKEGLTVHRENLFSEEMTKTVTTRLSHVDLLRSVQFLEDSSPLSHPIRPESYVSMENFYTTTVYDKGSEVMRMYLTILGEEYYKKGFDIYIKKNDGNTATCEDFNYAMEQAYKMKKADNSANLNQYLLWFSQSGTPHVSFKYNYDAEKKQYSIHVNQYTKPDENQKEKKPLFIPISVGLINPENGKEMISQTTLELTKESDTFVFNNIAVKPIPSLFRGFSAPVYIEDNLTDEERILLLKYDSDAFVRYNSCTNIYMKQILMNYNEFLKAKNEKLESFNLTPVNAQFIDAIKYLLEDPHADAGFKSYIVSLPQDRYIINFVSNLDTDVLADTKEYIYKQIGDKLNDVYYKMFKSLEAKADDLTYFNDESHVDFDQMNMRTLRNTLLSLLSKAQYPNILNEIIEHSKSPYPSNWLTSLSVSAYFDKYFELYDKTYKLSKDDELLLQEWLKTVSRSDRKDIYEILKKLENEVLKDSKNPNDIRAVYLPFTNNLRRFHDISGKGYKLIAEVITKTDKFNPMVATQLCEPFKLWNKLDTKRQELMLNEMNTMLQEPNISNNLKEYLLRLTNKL

Protein RecA = target: T6, Protein RecA (Mycobacterium tuberculosis, UniProt P9WHJ3); assay: Fluorescence Cell-Free Homogeneous Dose Retest to Identify Inhibitors of RecA-Intein Splicing Activity. [Related pubchem assays (depositor defined):AID2097, AID2223, AID489010, AID492950]; type: functional
T6 sequence (P9WHJ3 whole entry): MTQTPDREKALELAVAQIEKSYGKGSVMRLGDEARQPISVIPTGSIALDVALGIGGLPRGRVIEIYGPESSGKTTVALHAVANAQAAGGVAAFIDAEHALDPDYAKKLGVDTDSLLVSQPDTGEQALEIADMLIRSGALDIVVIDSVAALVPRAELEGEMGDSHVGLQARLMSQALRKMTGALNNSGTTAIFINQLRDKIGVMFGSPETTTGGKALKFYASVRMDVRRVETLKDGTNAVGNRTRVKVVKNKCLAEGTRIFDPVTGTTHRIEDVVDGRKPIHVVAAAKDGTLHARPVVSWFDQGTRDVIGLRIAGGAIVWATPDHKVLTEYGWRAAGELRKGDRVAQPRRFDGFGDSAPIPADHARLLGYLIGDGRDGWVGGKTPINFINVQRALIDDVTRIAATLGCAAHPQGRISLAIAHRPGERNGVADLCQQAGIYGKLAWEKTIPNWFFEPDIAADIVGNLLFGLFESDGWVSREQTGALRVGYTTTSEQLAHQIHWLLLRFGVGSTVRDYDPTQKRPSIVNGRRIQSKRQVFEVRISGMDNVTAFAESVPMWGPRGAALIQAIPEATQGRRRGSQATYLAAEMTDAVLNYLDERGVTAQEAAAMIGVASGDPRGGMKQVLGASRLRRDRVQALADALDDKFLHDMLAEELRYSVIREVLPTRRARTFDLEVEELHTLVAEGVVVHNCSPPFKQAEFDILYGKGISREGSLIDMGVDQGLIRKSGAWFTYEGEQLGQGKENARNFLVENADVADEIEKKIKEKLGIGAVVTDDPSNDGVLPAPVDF

Sequence of DNA dC->dU-editing enzyme APOBEC-3G (Q9HC16 whole entry): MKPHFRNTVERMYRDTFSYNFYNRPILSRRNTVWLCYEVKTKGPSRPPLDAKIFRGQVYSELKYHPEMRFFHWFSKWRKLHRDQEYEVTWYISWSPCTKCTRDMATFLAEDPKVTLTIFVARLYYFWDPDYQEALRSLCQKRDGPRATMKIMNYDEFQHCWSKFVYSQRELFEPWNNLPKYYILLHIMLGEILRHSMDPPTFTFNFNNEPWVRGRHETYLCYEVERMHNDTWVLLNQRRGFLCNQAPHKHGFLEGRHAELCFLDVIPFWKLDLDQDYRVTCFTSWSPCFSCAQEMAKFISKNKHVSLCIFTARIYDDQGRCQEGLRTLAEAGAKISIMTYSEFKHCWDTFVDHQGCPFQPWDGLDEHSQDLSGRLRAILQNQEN

SMILES | IC50 [1] | IC50 [2] | IC50 (Coagulation factor XII) | also measured
C[n+]1cccc(C(=O)N/N=C/c2ccc3c(c2)OCO3)c1 | 8.99 µM (active) | 3.15 µM (active) | – | –
O=C(Nc1ccc(NC(=O)c2ccc(Cl)cc2Cl)cc1)c1cccs1 | 11.8 µM (active) | 10.6 µM (active) | – | –
CCN1CCN(c2ccc(S(=O)(=O)N3CCCCC3)cc2NC(=O)c2cccc(C(F)(F)F)c2)CC1 | 13.2 µM (active) | 7.71 µM (active) | – | EC50 [3]: > 30 µM (not active); EC50 [4]: 1.09 µM (active)
Nn1c(Cc2cccc3ccccc23)nnc1SCCOc1ccc(F)cc1 | – | – | > 50 µM (inactive) | –
CCOC(=O)C1CCN(S(=O)(=O)c2ccc3c(c2)CC(=O)N3C)CC1 | 4 µM (active) | 2.81 µM (active) | – | –
COC(=O)C(C)N1C(=O)S/C(=C\c2ccc(-c3ccc(C(=O)O)cc3C)o2)C1=O (centres undefined) | 4.97 µM (active) | 5.66 µM (active) | – | –
Cc1cc(NC(=O)COC(=O)c2cccc(S(=O)(=O)N(C)C3CCCCC3)c2)no1 | – | – | > 50 µM (inactive) | –
COc1cc2ccccc2cc1C(=O)NC(=S)Nc1cc(C(=O)O)ccc1C | – | – | > 50 µM (inactive) | EC50 [5]: > 300 µM (not active); EC50 [6]: > 300 µM (not active)
O=C(Nc1ccc(F)cc1)Nc1cc(OCC(F)(F)F)cc(OCC(F)(F)F)c1 | – | – | > 50 µM (inactive) | AC50 [7]: 4.1 µM (active); AC50 (INS1): 2.01 µM (active); AC50 [8]: 2.46 µM (active); AC50 [9]: 4.59 µM (active)
C=CCNC(=O)CN(c1ccc(F)cc1)S(=O)(=O)c1ccc(OC)cc1 | – | – | > 50 µM (inactive) | –
CC[n+]1c(C)n(Cc2ccccc2)c2ccc(C(=O)OC)cc21 | 3.62 µM (active) | 2.88 µM (active) | – | –
Cc1n[nH]c(C)c1CCC(=O)N/N=C/c1cccs1 | – | – | > 50 µM (inactive) | –
C=CCn1c(NC(=O)c2ccc(Br)o2)c(S(=O)(=O)c2ccccc2)c2nc3ccccc3nc21 | – | – | – | AC50 [10]: 10.6 µM (active); IC50 (Aminopeptidase N): 17.4 µM (active); EC50 (Protein RecA): > 380 µM (inconclusive)
